Reference: PubChem BioAssay AID328 (DTP/NCI, 2004)
Several values for one entry are separate records, joined by “and”; a condition that tells them apart may be missing. Identical values can stand only once. Inconclusive results and toxic doses are left out.

Tested on: BDF1 mice, P388 leukemia ip, median survival T/C
Test: NCI In Vivo Anticancer Drug Screen. Data for tumor model P388 Leukemia (intraperitoneal) in B6D2F1 (BDF1) mice
Details: endpoint: median survival time, higher = longer survival
How it was run: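 Antitumour effect was judged in vivo: survival in drug-treated mice, normalised to that of vehicle-dosed controls, gives the reported T/C.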

[1] = dose: 100.0 mg/kg/injection, schedule: Q01DX009 (ip), vehicle: Klucel (hydroxypropylcellulose) (HPC)
[2] = dose: 200.0 mg/kg/injection, schedule: Q01DX009 (ip), vehicle: Klucel (hydroxypropylcellulose) (HPC)
[3] = dose: 400.0 mg/kg/injection, schedule: Q01DX009 (ip), vehicle: Klucel (hydroxypropylcellulose) (HPC)
[4] = dose: 400.0 mg/kg/injection, schedule: Q04DX003 (ip), vehicle: Klucel (hydroxypropylcellulose) (HPC)
[5] = dose: 50.0 mg/kg/injection, schedule: Q01DX009 (ip), vehicle: saline with Tween-80
[6] = dose: 100.0 mg/kg/injection, schedule: Q01DX009 (ip), vehicle: saline with Tween-80
[7] = dose: 100.0 mg/kg/injection, schedule: Q04DX003 (ip), vehicle: saline with Tween-80
[8] = dose: 200.0 mg/kg/injection, schedule: Q04DX003 (ip), vehicle: saline with Tween-80
[9] = dose: 400.0 mg/kg/injection, schedule: Q04DX003 (ip), vehicle: saline with Tween-80
[10] = dose: 25.0 mg/kg/injection, schedule: Q01DX009 (ip), vehicle: saline with Tween-80
[11] = dose: 25.0 mg/kg/injection, schedule: Q04DX003 (ip), vehicle: Klucel (hydroxypropylcellulose) (HPC)
[12] = dose: 50.0 mg/kg/injection, schedule: Q04DX003 (ip), vehicle: Klucel (hydroxypropylcellulose) (HPC)
[13] = dose: 100.0 mg/kg/injection, schedule: Q04DX003 (ip), vehicle: Klucel (hydroxypropylcellulose) (HPC)
[14] = dose: 200.0 mg/kg/injection, schedule: Q04DX003 (ip), vehicle: Klucel (hydroxypropylcellulose) (HPC)
[15] = dose: 12.5 mg/kg/injection, schedule: Q01DX009 (ip), vehicle: saline with Tween-80

Structure (SMILES): O=C(CCCCC(=O)Nc1ccc(C2=NCCN2)cc1)Nc1ccc(C2=NCCN2)cc1
- T/C (dose: 3.6 mg/kg/injection, schedule: Q01DX009 (ip), vehicle: Klucel (hydroxypropylcellulose) (HPC)): 104 % of control
- T/C (dose: 5.4 mg/kg/injection, schedule: Q01DX009 (ip), vehicle: Klucel (hydroxypropylcellulose) (HPC)): 100 % of control
- T/C (dose: 65.0 mg/kg/injection, schedule: Q01DX009 (ip), vehicle: Klucel (hydroxypropylcellulose) (HPC)): 168 % of control
- T/C [1]: 190 % of control
- T/C (dose: 100.0 mg/kg/injection, schedule: Q04DX003 (ip), vehicle: other): 111 % of control
- T/C (dose: 132.0 mg/kg/injection, schedule: Q01DX009 (ip), vehicle: Klucel (hydroxypropylcellulose) (HPC)): 204 % of control
- T/C [2]: 225 % of control and 172 % of control and 209 % of control
- T/C (dose: 200.0 mg/kg/injection, schedule: Q04DX003 (ip), vehicle: other): 116 % of control
- T/C (dose: 264.0 mg/kg/injection, schedule: Q04DX003 (ip), vehicle: Klucel (hydroxypropylcellulose) (HPC)): 180 % of control
- T/C (dose: 300.0 mg/kg/injection, schedule: Q01DX009 (ip), vehicle: Klucel (hydroxypropylcellulose) (HPC)): 257 % of control and 213 % of control
- T/C [3]: 100 % of control
- T/C [4]: 225 % of control and 168 % of control
- T/C (dose: 400.0 mg/kg/injection, schedule: Q04DX003 (ip), vehicle: other): 161 % of control

Structure (SMILES): CC(=O)OCC1OC(N)C(OC(C)=O)C(OC(C)=O)C1OC(C)=O (configuration not stated)
- T/C [5]: 97 % of control
- T/C [6]: 92 % of control
- T/C (dose: 200.0 mg/kg/injection, schedule: Q01DX009 (ip), vehicle: saline with Tween-80): 96 % of control

Structure (SMILES): O=C(O)c1ccccc1-c1ccccc1C(=O)O
- T/C [7]: 95 % of control
- T/C [8]: 104 % of control
- T/C [9]: 104 % of control

Structure (SMILES): O=C(Nc1ccc([N+](=O)[O-])cc1)OCC#CC#CCOC(=O)Nc1ccc([N+](=O)[O-])cc1
- T/C (dose: 50.0 mg/kg/injection, schedule: Q01DX009 (ip), vehicle: Klucel (hydroxypropylcellulose) (HPC)): 100 % of control
- T/C [1]: 100 % of control

Structure (SMILES): CCC(O)(c1ccc(OC)cc1)C(c1ccccc1)c1ccccn1 (configuration not stated)
- T/C (dose: 31.25 mg/kg/injection, schedule: Q01DX009 (ip), vehicle: saline with Tween-80): 103 % of control
- T/C (dose: 62.5 mg/kg/injection, schedule: Q01DX009 (ip), vehicle: saline with Tween-80): 103 % of control
- T/C (dose: 125.0 mg/kg/injection, schedule: Q01DX009 (ip), vehicle: saline with Tween-80): 100 % of control

Structure (SMILES): CCCN(CCC)CCSC(=S)NCCOC
- T/C [5]: 100 % of control
- T/C [6]: 113 % of control

Structure (SMILES): CCN(CCO)CCNc1ccc(C)c2sc3ccccc3c(=O)c12
- T/C [10]: 122 % of control
- T/C (dose: 66.0 mg/kg/injection, schedule: Q04DX003 (ip), vehicle: saline with Tween-80): 103 % of control
- T/C [6]: 104 % of control
- T/C [7]: 117 % of control

Structure (SMILES): Cc1ccc2c[n+]3cc4ccccc4cc3cc2c1
- T/C (dose: 1.56 mg/kg/injection, schedule: Q01DX009 (ip), vehicle: saline): 113 % of control
- T/C (dose: 4.5 mg/kg/injection, schedule: Q04DX003 (ip), vehicle: saline): 113 % of control
- T/C (dose: 4.6 mg/kg/injection, schedule: Q01DX009 (ip), vehicle: saline): 150 % of control
- T/C (dose: 9.0 mg/kg/injection, schedule: Q04DX003 (ip), vehicle: saline): 86 % of control

Structure (SMILES): COC(=O)/C=C/c1cccnc1
- T/C [11]: 100 % of control
- T/C [12]: 90 % of control
- T/C [13]: 95 % of control
- T/C [14]: 90 % of control

Structure (SMILES): S=c1nc[nH]c2c1ncn2C1CCCO1 (configuration not stated)
- T/C [5]: 95 % of control
- T/C [6]: 118 % of control

Structure (SMILES): CCC1CCCCN1C (configuration not stated)
- T/C (dose: 12.5 mg/kg/injection, schedule: Q04DX003 (ip), vehicle: saline): 100 % of control
- T/C (dose: 25.0 mg/kg/injection, schedule: Q04DX003 (ip), vehicle: saline): 90 % of control
- T/C (dose: 50.0 mg/kg/injection, schedule: Q04DX003 (ip), vehicle: saline): 90 % of control

Structure (SMILES): CC(O)C(C)(C)CO (configuration not stated)
- T/C (dose: 100.0 mg/kg/injection, schedule: Q04DX003 (ip), vehicle: saline): 100 % of control
- T/C (dose: 200.0 mg/kg/injection, schedule: Q04DX003 (ip), vehicle: saline): 100 % of control
- T/C (dose: 400.0 mg/kg/injection, schedule: Q04DX003 (ip), vehicle: saline): 100 % of control

Structure (SMILES): O=C1C(=O)c2ccccc2-c2ccccc21
- T/C (dose: 0.75 mg/kg/injection, schedule: Q01DX009 (ip), vehicle: carboxymethylcellulose (CMC)): 100 % of control
- T/C (dose: 1.5 mg/kg/injection, schedule: Q01DX009 (ip), vehicle: carboxymethylcellulose (CMC)): 109 % of control
- T/C (dose: 3.0 mg/kg/injection, schedule: Q01DX009 (ip), vehicle: carboxymethylcellulose (CMC)): 95 % of control
- T/C (dose: 6.0 mg/kg/injection, schedule: Q01DX009 (ip), vehicle: carboxymethylcellulose (CMC)): 114 % of control

Structure (SMILES): c1cc(Sc2cccc3nncn23)n2cnnc2c1
- T/C (dose: 100.0 mg/kg/injection, schedule: Q01DX001 (ip), vehicle: saline with Tween-80): 103 % of control
- T/C (dose: 200.0 mg/kg/injection, schedule: Q01DX001 (ip), vehicle: saline with Tween-80): 97 % of control
- T/C (dose: 400.0 mg/kg/injection, schedule: Q01DX001 (ip), vehicle: saline with Tween-80): 103 % of control

Structure (SMILES): CCC(=O)c1ccc(OCC(O)CN2CCN(c3ccccc3OC)CC2)cc1 (configuration not stated)
- T/C [7]: 104 % of control
- T/C [8]: 104 % of control
- T/C [9]: 119 % of control

Structure (SMILES): COc1ccc(CNc2cc(C(O)CNC(C)(C)C)ccc2O)cc1 (configuration not stated)
- T/C (dose: 6.25 mg/kg/injection, schedule: Q01DX009 (ip), vehicle: saline with Tween-80): 105 % of control
- T/C [15]: 102 % of control
- T/C [10]: 114 % of control

Structure (SMILES): COc1cc(NS(C)(=O)=O)ccc1Nc1c2ccc(Cl)cc2nc2c(OC)cccc12
- T/C (dose: 0.8 mg/kg/injection, schedule: Q01DX005 (iv), vehicle: water): 106 % of control
- T/C (dose: 0.8 mg/kg/injection, schedule: Q04DX003 (iv), vehicle: water): 105 % of control
- T/C (dose: 1.6 mg/kg/injection, schedule: Q01DX005 (iv), vehicle: water): 99 % of control
- T/C (dose: 1.6 mg/kg/injection, schedule: Q04DX003 (iv), vehicle: water): 100 % of control
- T/C (dose: 3.3 mg/kg/injection, schedule: Q01DX005 (iv), vehicle: water): 114 % of control
- T/C (dose: 3.3 mg/kg/injection, schedule: Q04DX003 (iv), vehicle: water): 109 % of control
- T/C (dose: 6.5 mg/kg/injection, schedule: Q04DX003 (iv), vehicle: water): 124 % of control
- T/C [15]: 95 % of control
- T/C (dose: 26.0 mg/kg/injection, schedule: Q04DX003 (iv), vehicle: water): 250 % of control

Structure (SMILES): CC1=C2CC(C)(C)/C=C\C(=O)/C(C)=C\C3=CC(C)(O)CC3(O2)C1=O (configuration not stated)
- T/C (dose: 0.16 mg/kg/injection, schedule: Q01DX009 (ip), vehicle: saline + alcohol): 93 % of control
- T/C (dose: 0.31 mg/kg/injection, schedule: Q01DX009 (ip), vehicle: saline + alcohol): 118 % of control
- T/C (dose: 0.62 mg/kg/injection, schedule: Q01DX009 (ip), vehicle: saline + alcohol): 120 % of control
- T/C (dose: 1.25 mg/kg/injection, schedule: Q01DX009 (ip), vehicle: saline + alcohol): 118 % of control
- T/C (dose: 10.0 mg/kg/injection, schedule: Q01DX009 (ip), vehicle: saline + alcohol): 154 % of control

Structure (SMILES): CCC(O)C(C)C(O)C(C)C(O)C(C)C(O)C(C)C1OC(=O)CC(O)C(C)C(O)CC(O)CCCC(O)CCC(C)C(O)C2(O)C(=O)CC(CC(O)CC(O)CC(O)CC(O)CCCC(O)C1O)OC2=O (configuration not stated)
- T/C (dose: 2.5 mg/kg/injection, schedule: Q01DX009 (ip), vehicle: saline): 92 % of control
- T/C (dose: 5.0 mg/kg/injection, schedule: Q01DX009 (ip), vehicle: saline): 109 % of control
- T/C (dose: 10.0 mg/kg/injection, schedule: Q01DX009 (ip), vehicle: saline): 109 % of control

Structure (SMILES): O=C(O)c1ccc(NS(=O)(=O)Cc2ccccc2)cc1
- T/C [1]: 123 % of control
- T/C [2]: 123 % of control
- T/C [3]: 123 % of control

Structure (SMILES): CC(=O)N(C)N(Cc1ccc(C#N)cc1)C(C)=O
- T/C [11]: 94 % of control
- T/C [12]: 100 % of control
- T/C [13]: 99 % of control
- T/C [14]: 100 % of control
- T/C [4]: 111 % of control

Structure (SMILES): CC(=O)c1c(-c2ccccc2)noc1C
- T/C [7]: 98 % of control
- T/C [8]: 90 % of control
- T/C [9]: 100 % of control
